Assay results from patent publication US12281125B2, “Rapamycin derivatives” (NOVARTIS AG, priority 2018, dated 2025).

What was measured:
[1] = system: mTORc1 signaling, pS6 (Ser240/244) in MEF TSCl−/− cells; assay: Cell-based assay for rapalog potency (pS6) in MEF TSCl−/− cells; conditions: Mus musculus, 2 hours treatment, average from multiple assays
In short: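 Constitutively mTORc1-active MEF TSC1−/− cells were starved 2 h in glucose/bicarbonate/HEPES DPBS, then exposed 2 h at 37° C to 8-point, 3.16-fold compound dilutions. After fixation, pS6 (Ser240/244) and p4EBP1 (Thr37/46) immunofluorescence was imaged; IC50 (nM) from pS6, averaged over multiple assays.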

[2] = Pharmacokinetic profile in rats; format: in vivo; conditions: male, Sprague-Dawley, blood, rat
Description: All procedures involving animals were approved by the Institutional Animal Care and Use Committee of the Novartis Institutes for Biomedical Research, Cambridge, Mass., USA. Adult Sprague Dawley (SD) male rats were purchased from Envigo (Indianapolis, USA). Once imported, rats were maintained at the specific pathogen free facilities with controlled temperature and light (22° C., 12-h light/12-h dark cycle: lights on at 0600 h/lights off at 1800 h) and with ad libitum access to food and water. Rats were acclimated for at least 3 days before experiments commenced.
Various organs were collected and frozen in liquid nitrogen. Blood was collected via a tail vein or a cardiac puncture (terminal) and frozen for further pharmacokinetics analyses. All tissues were stored at −80° C. until analyzed.
Concentrations were determined using HPLC/Mass spectrometry.
Compounds were administered to rats aged 7-9 weeks (N=3 per group) p.o. at 3 mg/kg and intravenously (i.v). at 1 mg/kg (FIGS. 3A and 3B).

[3] = system: mTORC1 pathway (S6 phosphorylation) in rat liver; assay: Inhibition of mTORc1 pathway in rat liver (p-S6/t-S6 immunoblot); format: in vivo; conditions: single oral dose 1, 3 and 10 mg/kg, liver at 3 hours, compared with vehicle control
Description: Rats were given a single oral dose of Compound 2 at 1, 3 or 10 mg/kg, and liver samples were collected at 3 hours following dosing. Rats treated with a vehicle were used as a control. […] GAPDH (glyceraldehyde 3-phosphate dehydrogenase) was used to control for protein loading. […] In the histogram depicted in FIG. 4B, average arbitrary values that indicate p-S6/t-S6 ratios are shown above each bar. X axis represents orally given doses (1, 3, or 10 mg/kg). Y-axis represents arbitrary units. Six rats were used in each experimental group. Data are mean±standard deviation. Data were analyzed with a one way ANOVA followed by Dunnett's multiple comparison tests, where means from all groups were compared to the vehicle treated group. […]. […]
Various organs were collected and frozen in liquid nitrogen. […] All tissues were stored at −80° C. until analyzed.
For protein extraction, snap frozen tissues were lysed in MSD Lysis Buffer (MSD, Rockville, Md.), supplemented with complete EDTA free protease inhibitor and PhosSTOP phosphatase inhibitor tablets (Roche, Manheim, Germany), and centrifuged at 13,000 g for 20 min at 4° C. […] Protein was quantified with BCA protein assay (Thermo Scientific, MA). […] Glyceraldehyde 3-phosphate dehydrogenase (GAPDH) detected with an anti-GAPDH antibody (#5174, Cell Signaling Technologies, MA) was used as a protein loading control. […]

For `CO[C@@H]1C[C@H](C[C@@H](C)[C@@H]2CC[C@H](C)/C=C(\C)[C@@H](O)[C@@H](OC)C(=O)[C@H](C)C[C@H](C)/C=C/C=C/C=C(\C)[C@@H](NS(C)(=O)=O)C[C@@H]3CC[C@@H](C)[C@@](O)(O3)C(=O)C(=O)N3CCCC[C@H]3C(=O)O2)CC[C@H]1O` [Compound 2], the IC50 [1] was 0.11 nM, the clearance ([2]; iv, i.v. 1 mg/kg) was 13 mL/min/kg and the half-life ([2]; iv, i.v. 1 mg/kg, read-out: iv. terminal half-life (converted)) was 19 h. The bioavailability ([2]; oral, p.o. 3 mg/kg and i.v. 1 mg/kg, solution formulation) was 16% and the “de-phosphorylation (inactivation) of S6 in rat livers” value [3] was “significant de-phosphorylation (inactivation) of S6”.
